Results: patent EP4603105A1, “PHARMACEUTICAL COMPOSITION CONTAINING CYCLIC COMPOUND HAVING SELECTIVE KRAS INHIBITORY EFFECT AGAINST HRAS AND NRAS” (CHUGAI SEIYAKU KABUSHIKI KAISHA, priority 2022, dated 2024)
Where a SMILES comes first, the peptide text is derived from it. Bridges are numbered along the chain shown (N, C = ends). [ ]: non-standard residue; d: D form. The star is where a group is joined. hPhe(3-Cl-4-CF3) = N[C@@H](CCc1ccc(C(F)(F)F)c(Cl)c1)C(=O)O; NPrPhe(4-CF3) = CCCN[C@@H](Cc1ccc(C(F)(F)F)cc1)C(=O)O; NEtPhe(4-Me) = CCN[C@@H](Cc1ccc(C)cc1)C(=O)O; NMeGly(cPent) = CN[C@H](C(=O)O)C1CCCC1; Hyp = O=C(O)[C@@H]1C[C@@H](O)CN1; NMeD = CN[C@@H](CC(=O)O)C(=O)O; NMeL = CN[C@@H](CC(C)C)C(=O)O; Morpholide = C1CN(*)CCO1; Ac5c = NC1(C(=O)O)CCCC1; Aze = O=C(O)[C@@H]1CCN1; NPrGly = CCCNCC(=O)O; NEtG = CCNCC(=O)O; Sar = CNCC(=O)O

Legend:
[1] = biological target: GDP-bound NRAS wild-type protein (Homo sapiens, UniProt P01111); test: Binding to NRAS by surface plasmon resonance (SPR), KD and KD ratio to KRAS
Sequence of GDP-bound NRAS wild-type protein (P01111 whole entry): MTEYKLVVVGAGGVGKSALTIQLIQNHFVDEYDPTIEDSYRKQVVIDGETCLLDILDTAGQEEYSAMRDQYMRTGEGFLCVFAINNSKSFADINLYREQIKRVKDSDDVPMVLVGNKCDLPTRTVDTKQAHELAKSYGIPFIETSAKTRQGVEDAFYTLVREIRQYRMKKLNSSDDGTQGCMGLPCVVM
How it was run: (§1)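 Compound binding is evaluated by SPR single-cycle kinetics, with concentrations added intermittently from low to high for 75 s each. Target surfaces carry GDP-loaded biotinylated Avi-RAS at about 100–300 RU, regenerated after each cycle; temperature 30°C. A 1:1 binding model gives KD.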

[2] = biological target: HRAS wild-type protein (Homo sapiens, UniProt P01112); test: Binding to HRAS by surface plasmon resonance (SPR), KD and KD ratio to KRAS
Sequence of HRAS wild-type protein (P01112 whole entry): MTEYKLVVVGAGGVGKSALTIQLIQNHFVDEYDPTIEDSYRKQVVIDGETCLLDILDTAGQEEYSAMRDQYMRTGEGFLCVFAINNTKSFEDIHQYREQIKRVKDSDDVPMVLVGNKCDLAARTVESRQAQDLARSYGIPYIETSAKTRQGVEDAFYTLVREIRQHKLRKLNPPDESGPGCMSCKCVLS
How it was run: as §1

[3] = system: human lung cancer strain NCI-H441; type: cell-based
How it was run: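 Proliferation was scored by […] measured after the reagent was added to cultures kept at 37°C in 5% carbon dioxide.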

[4] = ratio of KD for GDP-bound NRAS wild-type protein to KD for KRAS
[5] = ratio of KD for HRAS wild-type protein to KD for KRAS
[6] = ratio of the KD value with respect to GDP-bound NRAS wild-type protein to the KD value with respect to KRAS
[7] = ratio of the KD value with respect to HRAS wild-type protein to the KD value with respect to KRAS
[8] = ratio of KD value for GDP-bound NRAS wild-type protein to KD value for KRAS (SPR)
[9] = ratio of KD value for HRAS wild-type protein to KD value for KRAS (SPR)

Row | Structure (SMILES) | NRAS /KRAS [1, 4] | HRAS /KRAS [2, 5] | IC50 [3] | NRAS /KRAS [1, 6] | HRAS /KRAS [2, 7] | NRAS /KRAS [1, 8] | HRAS /KRAS [2, 9]
1 | CCCN1CC(=O)N(C)CC(=O)N(CCC)[C@@H](Cc2ccc(C(F)(F)F)cc2)C(=O)N(C)CC(=O)N[C@@H](CCc2ccc(C(F)(F)F)c(Cl)c2)C(=O)N2CCC[C@H]2C(=O)NC2(CCCC2)C(=O)N(C)[C@@H](C2CCCC2)C(=O)N(C)[C@H](C(=O)N2CCOCC2)CC(=O)N(C)[C@@H](CC(C)C)C(=O)N[C@@H]([C@@H](C)CC)C1=O [PP0253] ([NMeL]I[NPrGly][Sar][NPrPhe(4-CF3)][Sar][hPhe(3-Cl-4-CF3)]P[Ac5c][NMeGly(cPent)][NMeD]-Morpholide; lactam N-11) | B (a compound having 3 or more and less than 10 is denoted as B) | B (a compound having 3 or more and less than 10 is denoted as B) | 15.1 nM | – | – | – | –
2 | CC[C@H](C)[C@@H]1NC(=O)[C@H](CC(C)C)N(C)C(=O)C[C@@H](C(=O)N2CCOCC2)N(C)C(=O)[C@H](C2CCCC2)N(C)C(=O)C2(CCCCC2)NC(=O)[C@@H]2CCCN2C(=O)[C@H](CCc2cc(F)c(C(F)(F)F)c(F)c2)NC(=O)CN(C)C(=O)[C@H](Cc2ccc(C(F)(F)F)cc2)N2CCCC[C@@H](C2=O)N(C)C(=O)CN(C)C1=O [PP0561] | – | – | 20.9 nM | B (a compound having 3 or more and less than 10 is denoted as B) | B (a compound having 3 or more and less than 10 is denoted as B) | – | –
3 | CCC[C@H]1C(=O)N[C@@H]([C@@H](C)CC)C(=O)N(C)CC(=O)N(C)[C@H]2C/C=C\CCN(C2=O)[C@@H](Cc2ccc(C)cc2)C(=O)N(C)CC(=O)N[C@@H](CCc2ccc(C(F)(F)F)c(OC)c2)C(=O)N2C[C@H](C)C[C@H]2C(=O)NC2(CC(C)(C)C2)C(=O)N(C)[C@@H](C2CCCC2)C(=O)N(C)[C@H](C(=O)N(C)CC)CC(=O)N1C [PP1891] | – | – | 2.6 nM | – | – | A (a compound having 10 or more and less than 20 is denoted as A) | A (a compound having 10 or more and less than 20 is denoted as A)
4 | CC[C@H](C)[C@@H]1NC(=O)[C@H](CC(C)C)N(C)C(=O)C[C@@H](C(=O)N2CCOCC2)N(C)C(=O)[C@H](C2CCCC2)N(C)C(=O)C2(CCCC2)NC(=O)[C@@H]2CC(=O)CN2C(=O)[C@H](CCc2cc(F)c(C(F)(F)F)c(F)c2)NC(=O)CN(C)C(=O)[C@H](Cc2ccc(C(F)(F)F)cc2)N2CCCC[C@@H](C2=O)N(C)C(=O)CN(C)C1=O [PP0555] | – | – | 48.5 nM | B (a compound having 3 or more and less than 10 is denoted as B) | B (a compound having 3 or more and less than 10 is denoted as B) | – | –
5 | CC[C@H](C)[C@@H]1NC(=O)[C@H](CC(F)(F)F)N(C)C(=O)C[C@@H](C(=O)N(C)C)N(C)C(=O)[C@H](C2CCCC2)N(C)C(=O)C2(CC(C)(C)C2)NC(=O)[C@@H]2C[C@H](C)CN2C(=O)[C@H](CCc2cc(F)c(C(F)(F)F)c(F)c2)NC(=O)CN(C)C(=O)[C@H](Cc2ccc(C(F)(F)F)cc2)N2CC/C=C\C[C@@H](C2=O)N(C)C(=O)CN(C)C1=O [PP1682] | – | – | 2.6 nM | – | – | AA (a compound having 20 or more is denoted as AA) | A (a compound having 10 or more and less than 20 is denoted as A)
6 | CCO[C@@H]1C[C@H]2C(=O)NC3(CC(C)(C)C3)C(=O)N(C)[C@@H](C3CCCC3)C(=O)N(C)[C@H](C(=O)N(C)C)CC(=O)N(C)[C@@H](C)C(=O)N[C@@H]([C@@H](C)CC)C(=O)N(C)CC(=O)N(C)[C@H]3C/C=C\CCN(C3=O)[C@@H](Cc3ccc(C(F)(F)F)cc3)C(=O)N(C)CC(=O)N[C@@H](CCc3cc(F)c(C(F)(F)F)c(F)c3)C(=O)N2C1 [PP1641] | – | – | 4.6 nM | – | – | A (a compound having 10 or more and less than 20 is denoted as A) | A (a compound having 10 or more and less than 20 is denoted as A)
7 | CC[C@H](C)[C@@H]1NC(=O)[C@H](CC(C)C)N(C)C(=O)C[C@@H](C(=O)N2CCOCC2)N(C)C(=O)[C@H](C2CCCC2)N(C)C(=O)C2(CCCC2)NC(=O)[C@@H]2CCCN2C(=O)[C@H](CCc2ccc(C(F)(F)F)c(Cl)c2)NC(=O)CN(C)C(=O)[C@H](Cc2ccc(C)cc2)N(CC)C(=O)CN(CC)C(=O)CN(C)C1=O [PP0027] ([NMeL]I[Sar][NEtG][NEtPhe(4-Me)][Sar][hPhe(3-Cl-4-CF3)]P[Ac5c][NMeGly(cPent)][NMeD]-Morpholide; lactam N-11) | C (A compound having a KD ratio of 0.1 or more and less than 3 is denoted as C) | C (A compound having a KD ratio of 0.1 or more and less than 3 is denoted as C) | 17.1 nM | – | – | – | –
8 | CCCN1C(=O)[C@@H]2CCN2C(=O)CN(C)C(=O)[C@H]([C@@H](C)CC)NC(=O)[C@H](CC(C)C)N(C)C(=O)C[C@@H](C(=O)N(C)C)N(C)C(=O)[C@H](C2CCCC2)N(C)C(=O)C2(CCCC2)NC(=O)[C@@H]2C[C@@H](OCC)CN2C(=O)[C@H](CCc2ccc(C(F)(F)F)c(Cl)c2)NC(=O)CN(C)C(=O)[C@@H]1Cc1ccc(C(F)(F)F)cc1 [PP0444] ([NMeL]I[Sar][Aze][NPrPhe(4-CF3)][Sar][hPhe(3-Cl-4-CF3)][Hyp](Et)[Ac5c][NMeGly(cPent)][NMeD]-NMe2; lactam N-11) | – | – | 1.4 nM | C (A compound having a KD ratio of 0.1 or more and less than 3 is denoted as C) | C (A compound having a KD ratio of 0.1 or more and less than 3 is denoted as C) | – | –
9 | CC[C@H](C)[C@@H]1NC(=O)[C@H](COC)N(C)C(=O)C[C@@H](C(=O)N2CCOCC2)N(C)C(=O)[C@H](C2CCCC2)N(C)C(=O)C2(CCC2)NC(=O)[C@@H]2C[C@@H](OCC(C)C)CN2C(=O)[C@H](CCc2cc(F)c(C(F)(F)F)c(F)c2)NC(=O)CN(C)C(=O)[C@H](Cc2ccc(C(F)(F)F)cc2)N2CCCCC[C@@H](C2=O)N(C)C(=O)CN(C)C1=O [PP0839] | B (a compound having 3 or more and less than 10 is denoted as B) | B (a compound having 3 or more and less than 10 is denoted as B) | 122 nM | – | – | – | –
10 | CCO[C@@H]1C[C@H]2C(=O)NC3(CCCC3)C(=O)N(C)[C@@H](C3CCCC3)C(=O)N(C)[C@H](C(=O)N(C)C)CC(=O)N(C)[C@@H](CC(C)C)C(=O)N[C@@H]([C@@H](C)CC)C(=O)N(C)CC(=O)N(C)[C@H]3C/C=C\CCN(C3=O)[C@@H](Cc3ccc(C(F)(F)F)cc3)C(=O)N(C)CC(=O)N[C@@H](CCc3ccc(C(F)(F)F)c(Cl)c3)C(=O)N2C1 [PP2838] | AA (a compound having 20 or more is denoted as AA) | A (a compound having 10 or more and less than 20 is denoted as A) | 7.9 nM | – | – | – | –
11 | CCCN1C(=O)CN(C)C(=O)CNC(=O)[C@H]([C@@H](C)CC)NC(=O)[C@H](CC(C)C)N(C)C(=O)C[C@@H](C(=O)N2CCOCC2)N(C)C(=O)[C@H](C2CCCC2)N(C)C(=O)C2(CCCC2)NC(=O)[C@@H]2CCCN2C(=O)[C@H](CCc2ccc(C(F)(F)F)c(Cl)c2)NC(=O)CN(CC)C(=O)[C@@H]1Cc1ccc(C(F)(F)F)cc1 [PP1969] ([NMeL]IG[Sar][NPrPhe(4-CF3)][NEtG][hPhe(3-Cl-4-CF3)]P[Ac5c][NMeGly(cPent)][NMeD]-Morpholide; lactam N-11) | – | – | 74 nM | B (a compound having 3 or more and less than 10 is denoted as B) | C (A compound having a KD ratio of 0.1 or more and less than 3 is denoted as C) | – | –
